Data from patent EP0960886B1, “Peptide T and related peptides in the treatment of inflammation, including multiple sclerosis” (priority 1992, dated 1993).

System: Human umbilical vein endothelial cells
Experiment: TNF-induced tissue factor expression on endothelial cells, ELISA (Example 6)
Assay type: cell-based
Conditions: 100 units/ml human recombinant TNF, 4 h; Peptide T 0.5 to 100 µg/ml; triplicate cultures
Protocol: Human umbilical vein endothelial cells were cultured in M199 medium supplemented with 10% foetal calf serum, endothelial cell growth factor, penicillin, streptomycin and L-glutamine in 96-well dishes using a modification of the procedure of Bevilaqua et al, Proc. Natl. Acad. Sci. USA 83 4533 (1986)). TNF treatment of cultures (100 units.ml) was for 4 h at 37°C in the presence of growth medium, after which the cells were washed and fixed. Cultures were, also treated with Peptide T + TNF or Peptide T alone. In these cultures Peptide T was at a concentration which ranged from 0.5 to 100 µg/ml. Tissue factor expression by the endothelial cells treated with TNF with or without peptide T was determined in an ELISA using a monoclonal antibody which neutralises the activity of human tissue factor (Carlbiochem A/S). Bound anti-tissue factor antibody was detected using peroxidase-conjugated rabbit anti-mouse Ig and the substrate ABST. Colour intensity was determined by the optical density of each well at 405nm.

## C[C@@H](N)C(=O)N[C@@H](CO)C(=O)N[C@H](C(=O)N[C@H](C(=O)N[C@H](C(=O)N[C@@H](CC(N)=O)C(=O)N[C@@H](Cc1ccc(O)cc1)C(=O)N[C@H](C(N)=O)[C@@H](C)O)[C@@H](C)O)[C@@H](C)O)[C@@H](C)O [Peptide T, D-Ala-Ser-Thr-Thr-Thr-Asn-Tyr-Thr-NH2]
  expression of tissue factor on endothelial cells: inhibited
